Earlier results on one molecule are cited in patent US20080161587A1, “Crystallization method for purification of calcipotriene” (Teva Pharmaceuticals USA, Inc., priority 2002, published 2008).

Each structure is given as a SMILES string.

As to `C=C1/C(=C\C=C2/CCC[C@]3(C)[C@@H]([C@H](C)/C=C/[C@@H](O)C4CC4)CC[C@@H]23)C[C@@H](O)C[C@@H]1O` [calcipotriene, (5Z, 7E, 22E, 24S)-24-cyclopropyl-9,10-secochola-5,7,10(19), 22-tetraene-1α, 3β, 24-triol], where the note is “highly a polar solvents (e.g. hydrocarbons)”, the “solubility in highly apolar solvents” value is “essentially insoluble”. In addition, under “methanol, ethanol, and isopropanol (IPA)”, the “solubility in alcoholic solvents” value is recorded as “highly soluble”. Besides, where the note is “solvent methyl formate”, the “solubility of calcipotriene in methyl formate” value is listed as “about 1 g calcipotriene/150 mL of methyl formate”.
